The values that follow come from patent US8344009B2, “Substituted phenoxy thiazolidinediones as estrogen related receptor-á modulators” (priority 2007, dated 2013).

The first assay concerns the target T1, ERR1 (also known as ERR-α or ERR-1) (Homo sapiens, UniProt P11474).
T1 sequence (P11474 193-421 limits assumed): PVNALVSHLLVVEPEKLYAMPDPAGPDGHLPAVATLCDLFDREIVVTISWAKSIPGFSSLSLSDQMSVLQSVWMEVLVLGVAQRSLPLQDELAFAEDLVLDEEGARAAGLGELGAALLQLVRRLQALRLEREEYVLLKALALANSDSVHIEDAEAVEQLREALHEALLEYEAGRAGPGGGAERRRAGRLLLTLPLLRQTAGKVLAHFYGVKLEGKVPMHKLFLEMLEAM
Briefly: TR-FRET assay (disruption of co-activator peptide binding to ERR1 LBD). Type of assay: biochemical.
Conditions: not given
The protocol:
Time-Resolved Fluorescence Resonance Energy Transfer (TR-FRET) experiments were performed to examine the functional response of ERR1 (also known as ERR-α or ERR-1) ligands. The TR-FRET assay described herein relied on the conformation of ERR1 for binding to a co-activator peptide: when a test compound binds to ERR1 and alters its conformation, it can disrupt the binding of the co-activator peptide. The components of this homogeneous secondary assay included: the ^6His-tagged-ERR1LBD, a GST-labeled-hSRC2 co-activator polypeptide and a fluorescent donor/acceptor pair from CIS bio international htrf/bioassays (Bedford, Mass.) using both an α-GST Europium Cryptate (Eu) label and an α^6His-XL665 (allophycocyanin) fluorophore.
Reactions were allowed to reach equilibrium at 25° C. for 4-18 hours before collecting data on the Analyst from LJL Biosystems (Molecular Devices Sunnyvale, Calif.). […] Dose response curves were fitted using a hyperbolic equation and the data reported is the average of 3 independent experiments.
A general note: Time-resolved FRET reads energy transfer from a long-lived donor to a nearby acceptor.
As usually defined, the EC50 is the concentration needed to bring the measured effect to its halfway point. In the case of `COc1cc(/C=C2\SC(=O)NC2=O)ccc1Oc1ccc(C(F)(F)F)cc1Cl` [Compound 2, 5-[4-(2-Chloro-4-trifluoromethyl-phenoxy)-3-methoxy-benzylidene]-thiazolidine-2,4-dione], the EC50 was 130 nM. On the same count and under the same terms, to `COc1cc(/C=C2\SC(=O)NC2=O)ccc1Oc1ccc(C(F)(F)F)cc1C#N` [Compound 8, 2-[4-(2,4-Dioxo-thiazolidin-5-ylidenemethyl)-2-methoxy-phenoxy]-5-trifluoromethyl-benzonitrile] belongs 550 nM; to `COC(=O)c1cc(C(F)(F)F)ccc1Oc1ccc(/C=C2\SC(=O)NC2=O)cc1OC` [Compound 9, 2-[4-(2,4-Dioxo-thiazolidin-5-ylidenemethyl)-2-methoxy-phenoxy]-5-trifluoromethyl-benzoic acid methyl ester], 480 nM. `COC(=O)c1ccc(Oc2ccc(/C=C3\SC(=O)NC3=O)cc2OC)c(C(F)(F)F)c1` [Compound 10, 4-[4-(2,4-Dioxo-thiazolidin-5-ylidenemethyl)-2-methoxy-phenoxy]-3-trifluoromethyl-benzoic acid methyl ester] yielded a 50% effective concentration (EC50) of 12 nM. On the same count and under the same terms, the same measure for `COc1cc(/C=C2\SC(=O)NC2=O)ccc1Oc1ccc(C#N)c2ccccc12` [Compound 19, 4-[4-(2,4-Dioxothiazolidin-5-ylidenemethyl)-2-methoxyphenoxy]naphthalene-1-carbonitrile]: 120 nM; for `COc1cc(/C=C2\SC(=O)NC2=O)ccc1Oc1ccc(C(F)(F)F)cc1Br` [Compound 20, 5-[4-(2-Bromo-4-trifluoromethylphenoxy)-3-methoxybenzylidene]thiazolidine-2,4-dione]: 380 nM; for `COc1cc(/C=C2\SC(=O)NC2=O)ccc1Oc1ccc(C#N)cc1Cl` [Compound 21, 3-Chloro-4-[4-(2,4-dioxothiazolidin-5-ylidenemethyl)-2-methoxyphenoxy]benzonitrile]: 430 nM. The same measure, in the same setting: the same measure for `COc1cc(/C=C2\SC(=O)NC2=O)ccc1Oc1ccc(C#N)cc1Br` [Compound 22, 3-Bromo-4-[4-(2,4-dioxothiazolidin-5-ylidenemethyl)-2-methoxyphenoxy]benzonitrile]: 480 nM; for `COC(=O)c1ccc(Oc2ccc(/C=C3\SC(=O)NC3=O)cc2OC)c2ccccc12` [Compound 24]: 1 nM.

Staying with this assay, now noted: average of 3 independent experiments; read-out: TR-FRET EC50.
With `COc1cc(/C=C2\SC(=O)NC2=O)ccc1Oc1ccc(S(C)(=O)=O)cc1Br` [Compound 3, 5-[4-(2-Bromo-4-methanesulfonyl-phenoxy)-3-methoxy-benzylidene]-thiazolidine-2,4-dione], the concentration for a half-maximal effect (EC50) came out at 1030 nM. Turning to `COc1cc(/C=C2\SC(=O)NC2=O)ccc1Oc1ccc(S(C)(=O)=O)cc1Cl` [Compound 4, 5-[4-(2-Chloro-4-methanesulfonyl-phenoxy)-3-methoxy-benzylidene]-thiazolidine-2,4-dione], the EC50 is 550 nM. With `COc1cc(/C=C2\SC(=O)NC2=O)ccc1Oc1ccc(Br)cc1C(F)(F)F` [Compound 5, 5-[4-(4-Bromo-2-trifluoromethyl-phenoxy)-3-methoxy-benzylidene]-thiazolidine-2,4-dione], the EC50 stood at 570 nM.

For the molecule `COc1cc(/C=C2\SC(=O)NC2=O)ccc1Oc1ccc(C(N)=O)cc1C(F)(F)F` [Compound 6, 4-[4-(2,4-Dioxo-thiazolidin-5-ylidenemethyl)-2-methoxy-phenoxy]-3-trifluoromethyl-benzamide], the EC50 worked out at 510 nM. Still for that read-out and setting: the same measure for `Cc1cc(/C=C2\SC(=O)NC2=O)ccc1Oc1ccc(C#N)c2ccccc12` [Compound 11, 4-[4-(2,4-Dioxo-thiazolidin-5-ylidenemethyl)-2-methyl-phenoxy]-naphthalene-1-carbonitrile]: 480 nM; for `N#Cc1ccc(Oc2ccc(/C=C3\SC(=O)NC3=O)cc2F)c(C(F)(F)F)c1` [Compound 12, 4-[4-(2,4-Dioxo-thiazolidin-5-ylidenemethyl)-2-fluoro-phenoxy]-3-trifluoromethyl-benzonitrile]: 150 nM.

On to `CCOc1cc(/C=C2\SC(=O)NC2=O)ccc1Oc1ccc(C#N)cc1C(F)(F)F` [Compound 13, 4-[4-(2,4-Dioxo-thiazolidin-5-ylidenemethyl)-2-ethoxy-phenoxy]-3-trifluoromethyl-benzonitrile], for which the EC50 is 180 nM. Still for that read-out and setting: to `Cc1cc(/C=C2\SC(=O)NC2=O)ccc1Oc1ccc(C#N)cc1C(F)(F)F` [Compound 14, 4-[4-(2,4-Dioxo-thiazolidin-5-ylidenemethyl)-2-methyl-phenoxy]-3-trifluoromethyl-benzonitrile] belongs 200 nM; to `CCOc1cc(/C=C2\SC(=O)NC2=O)ccc1Oc1ccc(C#N)c2ccccc12` [Compound 15, 4-[4-(2,4-Dioxo-thiazolidin-5-ylidenemethyl)-2-ethoxy-phenoxy]-naphthalene-1-carbonitrile], 37 nM. Still for that read-out and setting: to `N#Cc1ccc(Oc2ccc(/C=C3\SC(=O)NC3=O)cc2Br)c(C(F)(F)F)c1` [Compound 16, 4-[2-Bromo-4-(2,4-dioxo-thiazolidin-5-ylidenemethyl)-phenoxy]-3-trifluoromethyl-benzonitrile] belongs 600 nM; to `N#Cc1ccc(Oc2ccc(/C=C3\SC(=O)NC3=O)cc2F)c2ccccc12` [Compound 17, 4-[4-(2,4-Dioxo-thiazolidin-5-ylidenemethyl)-2-fluoro-phenoxy]-naphthalene-1-carbonitrile], 100 nM.

Take `N#Cc1ccc(Oc2ccc(/C=C3\SC(=O)NC3=O)cc2Cl)c(C(F)(F)F)c1` [Compound 18, 4-[2-Chloro-4-(2,4-dioxo-thiazolidin-5-ylidenemethyl)-phenoxy]-3-trifluoromethyl-benzonitrile]: the concentration for a half-maximal effect (EC50) came out at 520 nM. Still for that read-out and setting: the same measure for `COc1cc(/C=C2\OC(=O)NC2=O)ccc1Oc1ccc(C#N)c2ccccc12` [Compound 23, 4-[4-(2,4-Dioxo-oxazolidin-5-ylidenemethyl)-2-methoxy-phenoxy]-naphthalene-1-carbonitrile]: 480 nM. Same read-out and setting: to `N#Cc1ccc(Oc2ccc(/C=C3\SC(=O)NC3=O)cc2C(F)(F)F)c(C(F)(F)F)c1` [Compound 26, 4-[4-(2,4-Dioxo-thiazolidin-5-ylidenemethyl)-2-trifluoromethyl-phenoxy]-3-trifluoromethyl-benzonitrile] belongs 1000 nM; to `CCOc1cc(/C=C2\SC(=O)NC2=O)ccc1Oc1ccc(C(N)=O)cc1C(F)(F)F` [Compound 27, 4-[4-(2,4-Dioxo-thiazolidin-5-ylidenemethyl)-2-ethoxy-phenoxy]-3-trifluoromethyl-benzamide], 330 nM. Still for that read-out and setting: to `Cc1cc(/C=C2\SC(=O)NC2=O)ccc1Oc1ccc(C(N)=O)cc1C(F)(F)F` [Compound 28, 4-[4-(2,4-Dioxo-thiazolidin-5-ylidenemethyl)-2-methyl-phenoxy]-3-trifluoromethyl-benzamide] belongs 440 nM; to `N#Cc1ccc(Oc2ccc(/C=C3\SC(=O)NC3=O)cc2OC(F)(F)F)c(C(F)(F)F)c1` [Compound 29, 4-[4-(2,4-Dioxo-thiazolidin-5-ylidenemethyl)-2-trifluoromethoxy-phenoxy]-3-trifluoromethyl-benzonitrile], 180 nM; to `COc1cc(/C=C2\SC(=O)NC2=O)ccc1Oc1ccc(Cl)cc1C(F)(F)F` [Compound 30, 5-[4-(4-Chloro-2-trifluoromethyl-phenoxy)-3-methoxy-benzylidene]-thiazolidine-2,4-dione], 8 nM. In the case of `O=C1NC(=O)/C(=C/c2ccc(Oc3ccc(Cl)cc3C(F)(F)F)c(F)c2)S1` [Compound 31, 5-[4-(4-Chloro-2-trifluoromethyl-phenoxy)-3-fluoro-benzylidene]thiazolidine-2,4-dione], the half-maximal effective concentration (EC50) worked out at 33 nM.
